≈ marks a conversion by molar mass, not a printed value. Calls of active or inactive are those of the source. The calls are words filed in the database; no cut-off is given here.
How the values were obtained:
[1] = Plasma clearance in ICR mouse; type: ADME, organism-based
Histone deacetylase 1 = Histone deacetylase 1 (Homo sapiens, UniProt Q13547)
Description: Inhibition of HDAC1 (unknown origin) using RHKK(Ac)AMC as substrate

[2] = target: T1, Protein deacetylase HDAC6 (Homo sapiens, UniProt Q9UBN7)
T1 sequence (Q9UBN7 whole entry): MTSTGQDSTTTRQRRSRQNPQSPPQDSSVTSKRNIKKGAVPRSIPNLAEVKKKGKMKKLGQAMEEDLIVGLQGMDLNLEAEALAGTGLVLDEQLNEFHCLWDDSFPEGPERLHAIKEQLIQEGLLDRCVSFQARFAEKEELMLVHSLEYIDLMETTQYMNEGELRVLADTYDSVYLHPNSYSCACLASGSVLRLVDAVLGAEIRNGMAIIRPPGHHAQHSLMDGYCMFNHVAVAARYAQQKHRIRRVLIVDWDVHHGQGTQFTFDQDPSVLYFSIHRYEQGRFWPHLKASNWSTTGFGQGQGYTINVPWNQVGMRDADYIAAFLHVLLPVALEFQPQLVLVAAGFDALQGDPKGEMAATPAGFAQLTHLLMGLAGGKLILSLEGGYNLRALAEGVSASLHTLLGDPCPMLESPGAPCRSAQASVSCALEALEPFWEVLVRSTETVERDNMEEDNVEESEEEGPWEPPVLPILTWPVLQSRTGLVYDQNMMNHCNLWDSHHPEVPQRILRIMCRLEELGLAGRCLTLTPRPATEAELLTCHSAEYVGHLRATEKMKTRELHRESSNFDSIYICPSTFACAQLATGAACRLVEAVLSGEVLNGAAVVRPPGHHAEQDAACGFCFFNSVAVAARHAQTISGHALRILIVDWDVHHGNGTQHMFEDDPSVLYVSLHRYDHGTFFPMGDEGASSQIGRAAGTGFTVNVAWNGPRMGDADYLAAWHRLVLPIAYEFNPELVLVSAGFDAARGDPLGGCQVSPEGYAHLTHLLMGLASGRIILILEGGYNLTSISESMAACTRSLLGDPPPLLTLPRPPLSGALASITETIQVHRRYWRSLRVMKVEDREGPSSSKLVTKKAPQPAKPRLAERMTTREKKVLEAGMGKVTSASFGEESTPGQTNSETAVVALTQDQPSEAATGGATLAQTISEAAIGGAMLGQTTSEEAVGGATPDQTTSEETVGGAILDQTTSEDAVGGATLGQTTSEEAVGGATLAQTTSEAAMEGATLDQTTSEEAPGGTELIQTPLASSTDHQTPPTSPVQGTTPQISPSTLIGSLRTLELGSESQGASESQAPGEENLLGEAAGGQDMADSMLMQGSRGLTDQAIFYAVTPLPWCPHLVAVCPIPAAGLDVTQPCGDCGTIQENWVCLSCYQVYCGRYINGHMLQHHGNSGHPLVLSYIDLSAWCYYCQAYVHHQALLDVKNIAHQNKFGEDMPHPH
Description: Inhibition of HDAC6 (unknown origin) using RHKK(Ac)AMC as substrate

[3] = target: T2, Histone deacetylase 1/2/3/6 (Homo sapiens) (UniProt Q13547+O15379+Q9UBN7+Q92769); settings: HeLa, at 10 µM
T2 sequence (O15379 whole entry, looked up, one chain of several): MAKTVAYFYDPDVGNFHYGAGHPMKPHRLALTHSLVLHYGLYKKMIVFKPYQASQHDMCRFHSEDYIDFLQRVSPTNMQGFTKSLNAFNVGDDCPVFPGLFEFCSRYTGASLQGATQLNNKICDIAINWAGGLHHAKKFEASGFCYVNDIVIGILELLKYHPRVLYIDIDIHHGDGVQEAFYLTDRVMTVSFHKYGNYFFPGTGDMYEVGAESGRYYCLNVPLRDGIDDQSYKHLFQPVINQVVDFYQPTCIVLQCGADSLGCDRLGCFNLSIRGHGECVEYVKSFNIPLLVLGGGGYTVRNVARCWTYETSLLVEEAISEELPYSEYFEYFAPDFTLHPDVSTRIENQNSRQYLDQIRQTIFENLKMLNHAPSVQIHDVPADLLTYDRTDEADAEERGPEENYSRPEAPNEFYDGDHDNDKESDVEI
T2 sequence (Q13547 whole entry, looked up, one chain of several): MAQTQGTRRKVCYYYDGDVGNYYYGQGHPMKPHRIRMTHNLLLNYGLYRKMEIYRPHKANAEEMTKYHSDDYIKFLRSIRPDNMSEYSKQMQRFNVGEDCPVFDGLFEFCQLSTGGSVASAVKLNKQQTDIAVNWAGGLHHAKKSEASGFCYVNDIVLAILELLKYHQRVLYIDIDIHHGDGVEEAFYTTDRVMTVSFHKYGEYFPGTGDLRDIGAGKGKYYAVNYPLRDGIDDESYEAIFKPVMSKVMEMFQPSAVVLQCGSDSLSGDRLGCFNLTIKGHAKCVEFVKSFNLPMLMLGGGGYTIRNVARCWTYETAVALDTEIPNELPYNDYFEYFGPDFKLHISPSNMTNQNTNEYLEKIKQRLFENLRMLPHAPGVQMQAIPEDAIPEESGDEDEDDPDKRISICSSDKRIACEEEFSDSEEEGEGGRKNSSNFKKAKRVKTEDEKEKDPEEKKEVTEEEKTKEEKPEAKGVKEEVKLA
T2 sequence (Q92769 whole entry, looked up, one chain of several): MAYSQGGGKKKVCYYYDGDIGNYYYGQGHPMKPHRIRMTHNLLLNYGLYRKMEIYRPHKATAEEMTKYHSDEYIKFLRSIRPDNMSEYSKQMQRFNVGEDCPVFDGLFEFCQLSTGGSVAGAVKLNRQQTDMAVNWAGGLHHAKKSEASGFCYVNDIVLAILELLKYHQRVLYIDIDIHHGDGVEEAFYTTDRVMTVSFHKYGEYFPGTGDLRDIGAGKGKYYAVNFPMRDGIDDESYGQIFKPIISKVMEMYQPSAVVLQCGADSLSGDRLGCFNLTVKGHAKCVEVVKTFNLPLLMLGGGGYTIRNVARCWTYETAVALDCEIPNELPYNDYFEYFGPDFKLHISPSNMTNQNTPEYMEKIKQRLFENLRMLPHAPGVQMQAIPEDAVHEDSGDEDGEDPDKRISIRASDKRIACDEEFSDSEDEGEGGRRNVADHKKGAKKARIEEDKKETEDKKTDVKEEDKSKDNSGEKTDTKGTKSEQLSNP
Description: Inhibition of HDAC1/HDAC2/HDAC3 in human HeLa cells assessed as induction of p21 gene expression at 10 uM after 15 hrs by luciferase reporter gene assay relative to HDAC1 inhibitor SNDX-275

[4] = Solubility of the compound in PBS measured after overnight incubation by LYSA assay; type: physicochemical
Histone deacetylase 8 = target: T3, Histone deacetylase 8 (Homo sapiens, UniProt Q9BY41)
T3 sequence (Q9BY41 whole entry): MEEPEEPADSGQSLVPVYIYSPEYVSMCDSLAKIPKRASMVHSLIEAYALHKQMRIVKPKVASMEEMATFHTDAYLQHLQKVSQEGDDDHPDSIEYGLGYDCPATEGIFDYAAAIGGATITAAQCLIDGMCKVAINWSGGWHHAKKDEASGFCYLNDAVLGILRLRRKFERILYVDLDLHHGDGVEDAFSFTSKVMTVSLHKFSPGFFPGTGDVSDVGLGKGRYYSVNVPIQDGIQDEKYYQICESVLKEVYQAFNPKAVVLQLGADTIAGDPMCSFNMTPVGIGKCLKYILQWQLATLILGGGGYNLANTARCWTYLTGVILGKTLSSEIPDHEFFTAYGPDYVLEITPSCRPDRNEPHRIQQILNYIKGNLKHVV
Description: Inhibition of HDAC8 (unknown origin) using RHK(Ac)K(Ac)AMC as substrate

[5] = target: T1, Protein deacetylase HDAC6; remark: listed apart in the source
Description: Inhibition of HDAC6 in human A549 cells assessed as induction of tubulin acetylation after 17 to 18 hrs by ELISA

[6] = target: T2, Histone deacetylase 1/2/3/6 (Homo sapiens); experiment: Inhibition of HDAC1/HDAC2/HDAC3 in human HeLa cells assessed as induction of p21 gene expression at 3 to 10 uM after 15 hrs by luciferase reporter gene assay; type: cell-based
[7] = Half life in ICR mouse at 10 mg/kg, iv; type: ADME, organism-based; set-up: dose 10 mg/kg, route intravenous; settings: in vivo
Mus musculus [8] = experiment: AUC (0 to infinity) in ICR mouse at 50 mg/kg, po; type: ADME, organism-based, Plasma; set-up: time infinity, dose 50 mg/kg, route oral; settings: in vivo
Mus musculus [9] = experiment: AUC (0 to infinity) in ICR mouse at 10 mg/kg, iv; type: ADME, organism-based, Plasma; set-up: time infinity, dose 10 mg/kg, route intravenous; settings: in vivo
[10] = Intrinsic clearance in mouse liver microsomes at 1 uM preincubated for 10 mins followed by NADPH addition measured over 30 mins by LC-MS/MS analysis; type: ADME; settings: read-out: CLH
[11] = Oral bioavailability in ICR mouse at 50 mg/kg; type: ADME, organism-based; settings: in vivo
[12] = Intrinsic clearance in human liver microsomes at 1 uM preincubated for 10 mins followed by NADPH addition measured over 30 mins by LC-MS/MS analysis; type: ADME; settings: read-out: CLH
[13] = target: T2, Histone deacetylase 1/2/3/6 (Homo sapiens); experiment: Inhibition of HDAC1/HDAC2/HDAC3 in human HeLa cells assessed as induction of p21 gene expression at 10 uM after 15 hrs by luciferase reporter gene assay; type: cell-based
[14] = Oral bioavailability in ICR mouse at 100 mg/kg; type: ADME, organism-based; settings: in vivo
Mus musculus [15] = experiment: AUC (0 to infinity) in ICR mouse at 100 mg/kg, po; type: ADME, organism-based, Plasma; set-up: time infinity, dose 100 mg/kg, route oral; settings: in vivo
[16] = Cmax in ICR mouse at 100 mg/kg, po; type: ADME, organism-based; set-up: dose 100 mg/kg, route oral; settings: in vivo

Histone deacetylase 1, sequence (Q13547 whole entry): as the sequence (Q13547 whole entry, looked up, one chain of several) above

Row | Structure (SMILES) | IC50 (Histone deacetylase 1) [µM] | IC50 [2] [nM] | solubility [4] [µg/mL] | IC50 (Histone deacetylase 8) [nM] | EC50 [5] [µM] | also measured
1 | C[C@@]1(Nc2ccc(C(=O)NO)cc2)CCN(c2ccc(Cl)cc2)C1=O | 24.5 | 260 | 34 (≈ 94.5 µM) | 590 | 1.9 | inhibition [6]: inactive
2 | O=C(NO)c1ccc(NC2CCN(c3ccc(C(F)(F)F)cc3)C2=O)cc1 (stereo unspecified) | 26.7 | 250 | 43 (≈ 113 µM) | 110 | 16.2 | 
3 | CN(C)CCOc1cccc(N2CCC(Nc3ccc(C(=O)NO)cc3)C2=O)c1 (stereo unspecified) |  |  | > 400 |  | 2 | 
4 | O=C(CCCCCCC(=O)Nc1ccccc1)NO [VORINOSTAT] |  |  | > 385 |  |  | half-life [7]: 24 min; clearance [1]: 112 mL/min/kg; AUC (Mus musculus [8]): 619 µg/L/h; AUC (Mus musculus [9]): 1486 µg/L/h; CLint scaled at 1 µM [10]: 33 mL/min/kg; bioavailability [11]: 8%; CLint scaled at 1 µM [12]: 0.1 mL/min/kg
5 | CC1(Nc2ccc(C(=O)NO)cc2)CCN(c2ccccc2)C1=O (stereo unspecified) | > 100 | 460 | 415 (≈ 1280 µM) | 590 | 2.6 | 
6 | N#Cc1ccc(N2CCC(Nc3ccc(C(=O)NO)cc3)C2=O)cc1 (stereo unspecified) | 12.8 | 100 | 28 (≈ 83.2 µM) | 160 | 3.1 | 
7 | CS(=O)(=O)c1ccc(N2CCC(Nc3ccc(C(=O)NO)cc3)C2=O)cc1 (stereo unspecified) | 17.1 | 140 | 97 (≈ 249 µM) | 120 |  | 
8 | O=C(NO)c1ccc(NC2CCN(c3ccc(Cl)cc3)C2=O)cc1 (stereo unspecified) | 14.3 | 160 | < 1 | 120 |  | half-life [7]: 66 min; bioavailability [14]: 3%; inhibition [6]: inactive; clearance [1]: 156 mL/min/kg; AUC (Mus musculus [15]): 278 µg/L/h; AUC (Mus musculus [9]): 1065 µg/L/h; CLint scaled at 1 µM [10]: 44 mL/min/kg; Cmax [16]: 57 ng/mL; CLint scaled at 1 µM [12]: 8 mL/min/kg
9 | CNc1ccc(C(=O)NO)cc1 | 52.3 | 1770 |  | 940 | 19.2 | inhibition [3]: inactive
10 | O=C(NO)c1ccc(NC2CCN(c3ccc(Cl)cc3)C2=O)cc1F (stereo unspecified) |  |  | < 1 |  | 13.5 | 
11 | O=C(NO)c1ccc(NC2CCN(CCc3ccccc3)C2=O)cc1 (stereo unspecified) | 8.88 | 240 | 63 (≈ 186 µM) | 260 | 16.6 | 
12 | CC1(Nc2ccc(C(=O)NO)cc2)CCN(c2ccc(Cl)cc2)C1=O (stereo unspecified) | 11.2 | 21 | 6 (≈ 16.7 µM) | 410 |  | inhibition [13]: Active
13 | CN(c1ccc(C(=O)NO)cc1)C1CCN(c2ccccc2)C1=O (stereo unspecified) | > 100 | 48800 |  | 8200 | > 30 | inhibition [3]: inactive
14 | O=C(NO)c1ccc(NC2CCN(Cc3ccccc3)C2=O)cc1 (stereo unspecified) | 11.7 | 510 | > 385 | 760 |  | 
15 | O=C(NO)c1ccc(NC2CCN(c3ccc(Cl)cc3)C2)cc1 (stereo unspecified) | 19.2 | 860 | < 1 | 860 |  | CLint scaled at 1 µM [10]: 53 mL/min/kg
16 | O=C(NO)c1ccc2c(c1)C[C@H](Nc1nccc(-c3cccnc3)n1)CC2 |  |  |  |  |  | clearance [1]: 99 mL/min/kg

Now from value to molecule, other results behind:

Row | IC50 (Histone deacetylase 1) [µM] | IC50 [2] [nM] | solubility [4] [µg/mL] | IC50 (Histone deacetylase 8) [nM] | EC50 [5] [µM] | Structure (SMILES) | also measured
17 | 9.96 | 12 | 210 (≈ 579 µM) |  |  | O=C(NO)c1ccc2c(c1)CC(Nc1nccc(-c3cccnc3)n1)CN2 (stereo unspecified) | clearance [1]: 74 mL/min/kg; inhibition [3]: inactive
18 | > 100 | 5740 | 203 (≈ 650 µM) | 4920 | > 30 | O=C(NO)c1ccc(OC2CCN(c3ccccc3)C2=O)cc1 (stereo unspecified) | inhibition [3]: inactive
19 | > 100 | 2260 | > 350 | 6250 | 18.1 | O=C(NO)c1ccc(NC2CC(=O)N(c3ccccc3)C2)cc1 (stereo unspecified) | inhibition [3]: inactive
20 | 6.02 | 18 | 17 (≈ 45.2 µM) | 76 |  | CC1(Nc2ccc(C(=O)NO)cc2)CCN(c2ccc3ncccc3c2)C1=O (stereo unspecified) | inhibition [13]: Active
21 | 29.4 | 1070 | < 1 | 22400 | 17.4 | O=C(NO)c1ccc(NC2CCN(c3ccc(Cl)cc3)C2=O)c(Cl)c1 (stereo unspecified) | 
22 | 15.9 | 63 | < 1 | 160 |  | O=C(NO)c1ccc(NC2CCN(c3ccc(Cl)c(Cl)c3)C2=O)cc1 (stereo unspecified) | 
23 | 12.1 | 90 | 17 (≈ 49.2 µM) | 180 |  | O=C(NO)c1ccc(NC2CCN(c3cccc(Cl)c3)C2=O)cc1 (stereo unspecified) | 
24 | 21.8 | 360 | 24 (≈ 69.4 µM) | 150 |  | O=C(NO)c1ccc(NC2CCN(c3ccccc3Cl)C2=O)cc1 (stereo unspecified) | 
25 |  |  | < 1 |  | 1.1 | O=C(NO)c1ccc(NC2CCN(c3ccc4ccccc4c3)C2=O)cc1 (stereo unspecified) | 

From ChEMBL document CHEMBL3414430 (J Med Chem, 2015)
